Test results published in ChEMBL document CHEMBL1201862, “PubChem BioAssay data set” (2004).
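Interpolation was linear, between the two tested concentrations surrounding the appropriate level; five concentrations were tested over 48 hours in 96-well plates. At the GI50, growth is halved.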 Activity calls are given as the source filed them. Cut-off read from the data, not from the text of the source: active = GI50 up to about 1.1 µM and inactive = higher.

Tests used:
Assay in all cases: growth of human tumour cells (NCI), 48 h
LOX IMVI = test system: LOX IMVI
SNB-75 = test system: SNB-75
BT-549 = test system: BT-549
A549 = test system: A549
SF-295 = test system: SF-295
NCI-H23 = test system: NCI-H23
MDA-MB-435 = test system: MDA-MB-435
SK-MEL-28 = test system: SK-MEL-28
SW-620 = test system: SW-620
K562 = test system: K562
KM12 = test system: KM12
SK-MEL-2 = test system: SK-MEL-2
ACHN = test system: ACHN
HT-29 = test system: HT-29
Hs-578T = test system: Hs-578T
HCC 2998 = test system: HCC 2998
OVCAR-3 = test system: OVCAR-3
UACC-62 = test system: UACC-62
RPMI-8226 = test system: RPMI-8226

Measured: GI50

CN(C)CC[N+](C)(C)[BH2-]C(O)O
inactive: LOX IMVI > 100 µM | SNB-75 > 100 µM | BT-549 > 100 µM | A549 > 100 µM | SF-295 > 100 µM | NCI-H23 > 100 µM | MDA-MB-435 > 100 µM | SK-MEL-28 > 100 µM | SW-620 > 100 µM | K562 > 100 µM | KM12 > 100 µM | SK-MEL-2 > 100 µM | ACHN > 100 µM | HT-29 > 100 µM | Hs-578T > 100 µM | HCC 2998 > 100 µM | OVCAR-3 > 100 µM | UACC-62 > 100 µM

COc1ccc2c(c1)/C(=C(\C(Cl)=C(Cl)Cl)[N+](=O)[O-])N2
inactive: LOX IMVI 76.4 µM | SNB-75 35.7 µM | BT-549 49.7 µM | A549 > 100 µM | SF-295 62.4 µM | NCI-H23 87.7 µM | MDA-MB-435 51.2 µM | SK-MEL-28 > 100 µM | SW-620 73.8 µM | K562 39 µM | KM12 > 100 µM | ACHN > 100 µM | HT-29 > 100 µM | Hs-578T 80.2 µM | HCC 2998 > 100 µM | OVCAR-3 28.2 µM | UACC-62 > 100 µM

C=C(Cl)CN1c2ccccc2C=Cc2ccccc21
inactive: LOX IMVI 11 µM | SNB-75 24.7 µM | BT-549 46 µM | A549 15.6 µM | SF-295 10.4 µM | NCI-H23 > 100 µM | MDA-MB-435 14.9 µM | KM12 11 µM | SK-MEL-2 18.7 µM | ACHN 7.05 µM | HT-29 9.44 µM | Hs-578T 53.3 µM | HCC 2998 17.6 µM | OVCAR-3 15.7 µM | UACC-62 10.1 µM

CCOC(=O)Cn1c(C(F)(F)F)nc2nc(Cl)c(Cl)nc21
inactive: LOX IMVI 38.1 µM | SNB-75 55.2 µM | BT-549 54.8 µM | A549 47.8 µM | SF-295 29 µM | NCI-H23 27 µM | MDA-MB-435 32.5 µM | SK-MEL-28 48.9 µM | SW-620 54 µM | K562 26.7 µM | KM12 15.3 µM | SK-MEL-2 24.7 µM | ACHN > 45.6 µM | HT-29 51.9 µM | Hs-578T 25 µM | RPMI-8226 6.58 µM | OVCAR-3 16.3 µM | UACC-62 24.7 µM

CC1=NN2CCC(=O)N=C2S1
inactive: LOX IMVI > 100 µM | SNB-75 > 100 µM | BT-549 > 100 µM | A549 > 100 µM | SF-295 > 100 µM | NCI-H23 > 100 µM | MDA-MB-435 > 100 µM | SK-MEL-28 > 100 µM | SW-620 > 100 µM | K562 > 100 µM | KM12 > 100 µM | SK-MEL-2 > 100 µM | ACHN > 100 µM | HT-29 > 100 µM | Hs-578T > 100 µM | RPMI-8226 > 100 µM | OVCAR-3 > 100 µM | UACC-62 > 100 µM

COc1ccc2c(c1)C1Oc3ccccc3CC1(O)CO2 (stereo not drawn)
inactive: LOX IMVI > 100 µM | SNB-75 > 100 µM | BT-549 > 100 µM | A549 > 100 µM | SF-295 > 100 µM | NCI-H23 > 100 µM | MDA-MB-435 > 100 µM | SW-620 > 100 µM | K562 > 100 µM | KM12 > 100 µM | SK-MEL-2 > 100 µM | ACHN > 100 µM | HT-29 > 100 µM | RPMI-8226 > 100 µM | HCC 2998 > 100 µM | OVCAR-3 > 100 µM | UACC-62 > 100 µM

COc1ccc(-c2nc(-c3cnccn3)n(C3OC(CO)C(O)C3O)n2)cc1 (stereo not drawn)
inactive: LOX IMVI > 10 µM | SNB-75 > 10 µM | BT-549 > 10 µM | A549 > 10 µM | SF-295 > 10 µM | NCI-H23 > 10 µM | MDA-MB-435 > 10 µM | SW-620 > 10 µM | K562 > 10 µM | KM12 > 10 µM | SK-MEL-2 > 10 µM | ACHN > 10 µM | HT-29 > 10 µM | HCC 2998 > 10 µM | OVCAR-3 > 10 µM | UACC-62 > 10 µM

Oc1ccc(-c2ccccc2)nn1
inactive: LOX IMVI > 100 µM | BT-549 > 100 µM | A549 > 100 µM | SF-295 > 100 µM | NCI-H23 > 100 µM | MDA-MB-435 > 100 µM | SK-MEL-28 > 100 µM | SW-620 > 100 µM | K562 > 100 µM | KM12 > 100 µM | SK-MEL-2 > 100 µM | ACHN > 100 µM | HT-29 > 100 µM | Hs-578T > 100 µM | HCC 2998 > 100 µM | OVCAR-3 > 100 µM | UACC-62 > 100 µM

N#CC1C(=O)N(c2ccccc2)NC12OC(=O)c1ccncc12 (stereo not drawn)
inactive: LOX IMVI > 20 µM | BT-549 > 20 µM | A549 > 20 µM | SF-295 > 20 µM | NCI-H23 > 20 µM | MDA-MB-435 > 20 µM | SK-MEL-28 > 20 µM | SW-620 > 20 µM | K562 > 20 µM | SK-MEL-2 > 20 µM | ACHN > 20 µM | HT-29 > 20 µM | RPMI-8226 > 20 µM | HCC 2998 > 20 µM | OVCAR-3 > 20 µM | UACC-62 > 20 µM

CC(=O)OC1COC(n2nc(N)nc2C)C(OC(C)=O)C1OC(C)=O (stereo not drawn)
inactive: LOX IMVI > 100 µM | SNB-75 > 100 µM | BT-549 > 100 µM | A549 > 100 µM | SF-295 > 100 µM | NCI-H23 > 100 µM | MDA-MB-435 > 100 µM | SK-MEL-28 > 100 µM | SW-620 > 100 µM | K562 > 100 µM | KM12 > 100 µM | SK-MEL-2 > 100 µM | ACHN > 100 µM | HT-29 > 100 µM | RPMI-8226 > 100 µM | HCC 2998 > 100 µM | OVCAR-3 > 100 µM | UACC-62 > 100 µM

Cc1ccc(NC(=O)/C(Cc2nc3ccc([N+](=O)[O-])cc3nc2O)=N\NC(=O)C[n+]2ccccc2)c(C)c1
inactive: LOX IMVI 59 µM | SNB-75 97.3 µM | BT-549 > 100 µM | A549 23.3 µM | SF-295 58.1 µM | NCI-H23 65.6 µM | MDA-MB-435 97.3 µM | SK-MEL-28 77.4 µM | SW-620 61.1 µM | KM12 74.6 µM | SK-MEL-2 39.9 µM | ACHN 20.5 µM | HT-29 > 100 µM | Hs-578T 86.1 µM | HCC 2998 > 100 µM | OVCAR-3 23.1 µM | UACC-62 55.1 µM

CCC1([N+](=O)[O-])CC2C=CC1C2 (stereo not drawn)
inactive: LOX IMVI > 100 µM | SNB-75 > 100 µM | BT-549 > 100 µM | A549 > 100 µM | SF-295 > 100 µM | NCI-H23 > 100 µM | MDA-MB-435 > 100 µM | SK-MEL-28 > 100 µM | SW-620 > 100 µM | K562 > 100 µM | KM12 > 100 µM | SK-MEL-2 > 100 µM | ACHN > 100 µM | HT-29 > 100 µM | Hs-578T > 100 µM | RPMI-8226 > 100 µM | OVCAR-3 > 100 µM | UACC-62 > 100 µM

CCOC(=O)C1=C(C(=O)c2ccc(C)cc2)C(c2cccc([N+](=O)[O-])c2)C(C(=O)c2ccc(C)cc2)=C(C(=O)OCC)N1
inactive: LOX IMVI 17.6 µM | SNB-75 40.9 µM | BT-549 21.1 µM | A549 24.2 µM | SF-295 16.1 µM | NCI-H23 15.8 µM | MDA-MB-435 16 µM | SK-MEL-28 17.8 µM | SW-620 14.1 µM | K562 7.24 µM | KM12 12.8 µM | SK-MEL-2 26.1 µM | ACHN 15.1 µM | HT-29 13 µM | Hs-578T 22 µM | OVCAR-3 15.5 µM | UACC-62 18.2 µM

CN1CN(c2ccccc2)C2(CCN(CCc3csc4ccccc34)CC2)C1=O
inactive: LOX IMVI 13.7 µM | SNB-75 17.3 µM | BT-549 4.71 µM | A549 24.2 µM | NCI-H23 17.4 µM | MDA-MB-435 14.4 µM | SK-MEL-28 15.7 µM | SW-620 16.9 µM | K562 14.8 µM | KM12 12.6 µM | ACHN > 10 µM | HT-29 4.04 µM | RPMI-8226 6.84 µM | HCC 2998 7.21 µM | OVCAR-3 12.1 µM | UACC-62 19.9 µM

Cc1ncc(CSc2ccccc2N)c(CO)c1O
inactive: LOX IMVI > 100 µM | SNB-75 > 100 µM | BT-549 > 100 µM | A549 > 100 µM | SF-295 > 100 µM | NCI-H23 > 100 µM | MDA-MB-435 > 100 µM | SK-MEL-28 > 100 µM | SW-620 > 100 µM | K562 > 100 µM | KM12 > 100 µM | SK-MEL-2 > 100 µM | ACHN > 100 µM | HT-29 > 100 µM | Hs-578T > 100 µM | RPMI-8226 > 100 µM | OVCAR-3 > 100 µM | UACC-62 65.8 µM

COc1ccc(CCCNC(=O)Cc2cc(OC)c(OC)cc2CO)cc1OC
inactive: LOX IMVI > 100 µM | SNB-75 > 100 µM | BT-549 > 100 µM | A549 > 100 µM | NCI-H23 75 µM | MDA-MB-435 > 100 µM | SK-MEL-28 > 100 µM | SW-620 > 100 µM | K562 > 100 µM | KM12 > 100 µM | SK-MEL-2 > 100 µM | ACHN > 100 µM | HT-29 > 100 µM | Hs-578T > 100 µM | HCC 2998 > 100 µM | OVCAR-3 > 100 µM | UACC-62 > 100 µM
